Data as given in patent US20250108358A1, “PHOTOCHEMICALLY DRIVEN REGENERATION OF CARBON DIOXIDE SORBENTS” (UT-Battelle, LLC, priority 2023, published 2025).

How the values were obtained:
[1] = Total inorganic carbon (TIC) analysis, CO2-loaded glycine system; conditions: for reduction in the inorganic carbon content: vs CO2-loaded glycine solution
Method: See F. M. Brethome et al., Nat. Energy 2018, 3, 553-559 and R. Custelcean et al., Ind. Eng. Chem. Res. 2019, 58, 23338-23346.
(§1) Total inorganic carbon analysis: To quantify the amount of total inorganic carbon converted to CO2, the quantities of bicarbonate in the solution before and after the irradiation were determined using a total inorganic carbon analyzer consisting of an acidification module and a coulometric detection. […] Air was used as carrier gas (100 mL/min) in all experiments. 1 mM KHCO3 solution was tested similarly as the reference sample. Calculations were based on sample volume and 1 M Na2CO3 was used as the standard solution.

[2] = Total inorganic carbon (TIC) analysis, simulated system with KHCO3
Method: as §1

[3] = pH measurements of mPAH 1 solutions under 355 nm lamp irradiation; assay type: physicochemical
Description: Light sources: The light source, referred as the 355 nm lamp thereafter, is a portion of the output of an Oriel 200 W mercury-xenon lamp, which was selected using a 2″ round Oriel broadband filter centered at 355 nm with a full width at half maximum of ˜150 nm and highest transmission of ˜90% (Filters 51664 and 59814). The photon fluxes at the sample position was ˜500 μmol·m^−2·s^−1, which measured using a handheld meter.
pH measurements and absorption spectra measurements: Typically for all experiments using the 355 nm lamp, 6 mL of solution mixtures were placed in a glass vial of diameter ˜2 cm and pH variations of the solutions upon light exposure were monitored continuously using a pH meter. Solutions were exposed to air and continuously stirred during pH measurements and sealed and kept in the dark without stirring for the mPAH 1 reverse reaction. Calculated amount of bicarbonate was replaced prior to second and third cycles. All absorption spectra during a given reaction event were acquired using a UV-vis spectrometer by taking a small amount (˜200 μL) of solution. Co-existence of different mPAH 1 conformers were verified using 1H NMR spectroscopy and theoretical calculations.

[4] = Head space CO2 release measurement (infrared sensor, 470 nm LED); conditions: mPAH 2/morpholine
Description: This step is important to reproducibly measure the CO2 release as described below. […] After the reading of CO2 was steady, irradiation was applied from outside of the glass chamber using a 470 nm LED with moderate power (˜ 13 mW/cm^2). The CO2 released to the chamber was monitored using a head space method, as also used in previous studies. The concentration of CO2 gas in the chamber was monitored by the sensor and compared to that of a standard. Not only does this method directly measure the CO2 gas released, but also it is suitable for studying relatively small samples with good sensitivity. […] Addition of a strong acid leads to complete decomposition of the bicarbonate and CO2 release. […] It also reacts with CO2 via an acid-base reaction to form bicarbonate salt.

[5] = Solubility in water; assay type: physicochemical

Compound	reduction in the inorganic carbon content ([1]; 1 mM mixture of CO2-loaded glycine and mPAH 1, upon irradiation)	reduction in the inorganic carbon content ([1]; 20 mM mixture of CO2-loaded glycine and mPAH 1, upon irradiation)	efficiency of conversion of total inorganic carbon to CO2 ([1]; amino acid (AA)-based DAC systems, with respect to initial concentrations)	total inorganic carbon in the solution converted to CO2 ([2]; 1 mM mPAH 1 + 1 mM KHCO3 (simulated system), upon irradiation)	total bicarbonate converted to CO2 ([2]; 2 mM mPAH 1 pre-irradiated 30 min, mixed with equal volume 2 mM KHCO3, reaction without irradiation)	total bicarbonate converted to CO2 ([2]; 2 mM mPAH 1 pre-irradiated, mixed with equal volume 2 mM KHCO3, continuous irradiation)	rate of pH increase owing to CO2 release ([3]; 1 mM mPAH 1 + 1 mM KHCO3, second cycle of irradiation)	rate of pH increase owing to CO2 release ([3]; 1 mM mPAH 1 + 1 mM KHCO3, third cycle of irradiation)	pH increment ([3]; 1 mM mPAH 1 + 1 mM KHCO3, third cycle performed only 4 hours after the second cycle)	time for full reverse reaction to the initial trans isomer ([3]; mPAH 1 itself, in the dark)	time after start of irradiation at which head space [CO2] rose [4]	solubility in water [5]
O=S(=O)([O-])CCC[n+]1c(/C=C/c2cc(S(=O)(=O)[O-])cc3cn[nH]c23)sc2ccccc21.[Na+] [mPAH 1]	approximately 68%	~78%	68%-78%	55%	~3%	~50%	0.35 pH units/hour	0.11 pH units/hour	0.31 pH units/hour	4 to 6 h	–	–
COC(=O)c1ccc2sc(/C=C/c3cc(S(=O)(=O)[O-])cc4cn[nH]c34)[n+](CCCS(=O)(=O)O)c2c1 [mPAH 2]	–	–	–	–	–	–	–	–	–	–	~5 min	about 30 mM
